Assay results: US6844443B2, “Benzimidazole derivatives, their production and use” (Takeda Pharmaceutical Company, Ltd., priority 1990, dated 2005)

Legend:
A II receptor = target: T1, A II receptor (Bos taurus, UniProt P25104); assay: Inhibition of binding of angiotensin II to angiotensin receptor (radioreceptor assay); set-up: species or system bovine; Radioreceptor Assay 1 × 10^−7M / Radioreceptor Assay 1 × 10^−6M: unit not given here; conditions: for inhibition at 1 µM / inhibition at 0.1 µM: 1 h; for inhibition at 1 µM / Radioreceptor Assay 1 × 10^−6M / Radioreceptor Assay 1 × 10^−7M: inhibition of 125I-A II binding, bovine adrenal cortex membrane fraction; for inhibition at 1 µM / Radioreceptor Assay 1 × 10^−6M: compound 1 × 10^−6M; for inhibition at 0.1 µM: read-out: Radioreceptor Assay 1 × 10^−7M; for Radioreceptor Assay 1 × 10^−7M: compound 1 × 10^−7M
T1 construct: An A II receptor membrane fraction was prepared from bovine adrenal cortex; from tissue; host or cells: bovine adrenal cortex membrane fraction
T1 sequence (P25104 1-359): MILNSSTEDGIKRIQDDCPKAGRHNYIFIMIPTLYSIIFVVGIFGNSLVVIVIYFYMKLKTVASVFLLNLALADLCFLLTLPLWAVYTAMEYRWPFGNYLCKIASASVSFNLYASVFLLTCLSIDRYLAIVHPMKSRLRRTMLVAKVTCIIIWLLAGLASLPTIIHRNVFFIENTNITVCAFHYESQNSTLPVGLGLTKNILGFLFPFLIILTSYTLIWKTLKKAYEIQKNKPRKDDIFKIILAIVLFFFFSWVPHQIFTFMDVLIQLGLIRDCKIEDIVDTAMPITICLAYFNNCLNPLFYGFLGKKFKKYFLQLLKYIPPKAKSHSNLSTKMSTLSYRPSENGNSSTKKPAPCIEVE
Experimental: An experiment of inhibition on the binding of angiotensin II (A II) to A II receptor was conducted by modifying the method of Douglas et al. [Endocrinology, 102, 685-696 (1978)]. An A II receptor membrane fraction was prepared from bovine adrenal cortex.
The compound of the present invention (10 ^−6M or 10^−7M) and ^125I-angiotensin II (^125I-A II) (1.85 kBq/50 μl ) were added to the receptor membrane fraction, and the mixture was incubated at room temperature for one hour. The receptor-bound and free ^125I-A II were separated through a filter (Whatman GF/B filter), and the radioactivity of ^125I-A II bound to the receptor was measured.

[1] = tested on: A II-induced pressor action; assay: Inhibitory effect on pressor action of A II after oral administration; type: in vivo, Jcl: SD rats; conditions: for inhibition in vivo at 3 mg/kg: Rattus norvegicus, po, read-out: Pressor Response to A II (p.o.) 3 mg/kg; for Pressor Response to A II (p.o.) 3 mg/kg: percent inhibition of pressor action of i.v. A II (100 ng/kg), 3 mg/kg p.o., rats
Experimental: Jcl: SD rats (9 week old, male) were employed. On the previous day of the experiment, these animals were applied with cannulation into the femoral artery and vein under anesthesia with pentobarbital Na. The animals were fasted but allowed to access freely to drinking water until the experiment was started. Just on the day of conducting the experiment, the artery cannula was connected with a blood-pressure transducer, and the average blood pressure was recorded by means of polygraph. Before administration of the drug, the pressor action due to intravenous administration of A II (100 ng/kg) as the control was measured. The drugs were orally administered, then, at each point of the measurement, A II was administered intravenously, and the pressor action was similarly measured. By comparing the pressor action before and after administration of the drug, the percent inhibition by the drug on A II-induced pressor action was evaluated.

inhibition at 1 µM (A II receptor) [%] | inhibition at 0.1 µM (A II receptor) [%] | melting point | Radioreceptor Assay 1 × 10^−6M (A II receptor) | Radioreceptor Assay 1 × 10^−7M (A II receptor) | SMILES | inhibition in vivo at 3 mg/kg [1] [%] | Pressor Response to A II (p.o.) 3 mg/kg [1]
67 | 17 |  |  |  | COC(=O)c1cccc2nc(OC)n(Cc3ccc(-c4ccccc4-c4nnn[nH]4)cc3)c12 [Example 45] | ≥ 70 | 
88 | 66 |  |  |  | COc1nc2cccc(C(=O)O)c2n1Cc1ccc(-c2ccccc2-c2nnn[nH]2)cc1 [Example 46] | ≥ 70 | 
89 | 58 |  |  |  | CCOc1nc2cccc(C(=O)OC)c2n1Cc1ccc(-c2ccccc2-c2nnn[nH]2)cc1 [Example 39] | ≥ 70 | 
32 | 7 |  |  |  | CCCSc1nc2cccc(C(=O)OCC)c2n1Cc1ccc(-c2ccccc2-c2nnn[nH]2)cc1 [Example 35] |  | 
57 | 45 |  |  |  | CCCNc1nc2cccc(C(=O)OCC)c2n1Cc1ccc(-c2ccccc2-c2nnn[nH]2)cc1 [Example 41] |  | 
79 | 41 |  |  |  | CNc1nc2cccc(C(=O)O)c2n1Cc1ccc(-c2ccccc2-c2nnn[nH]2)cc1 [Example 57] |  | 
 |  | 145 to 150 °C (dec.) |  |  | CCOc1nc2cccc(C(=O)OCOC(=O)CC)c2n1Cc1ccc(-c2ccccc2-c2nnn[nH]2)cc1 [Working Example 51, Propionyloxymethyl 2-ethoxy-1-[[2′-(1 H-tetrazol-5-yl)-biphenyl-4-yl]methyl]benzimidazole-7-carboxylate] |  | 
87 | 48 |  |  |  | CCNc1nc2cccc(C(=O)OCOC(=O)C(C)(C)C)c2n1Cc1ccc(-c2ccccc2-c2nnn[nH]2)cc1 [Example 62] | ≥ 70 | 
 |  | 122 to 125 °C (dec.) |  |  | CCOc1nc2cccc(C(=O)OCc3oc(=O)oc3C)c2n1Cc1ccc(-c2ccccc2-c2nnn[nH]2)cc1 [Working Example 49, (5-Methyl-2-oxo-1,3-dioxolen-4-yl)methyl 2-ethoxy-1-[[2′-(1 H-tetrazol-5-yl)biphenyl-4-yl]methyl]benzimidazole-7-carboxylate] |  | 
80 | 41 |  |  |  | CCSc1nc2cccc(C(=O)O)c2n1Cc1ccc(-c2ccccc2-c2nnn[nH]2)cc1 [Example 37] | ≥ 70 | 
 |  | 140 to 142 °C |  |  | CCOc1nc2cccc(C(=O)OCOC(=O)C3CCCCC3)c2n1Cc1ccc(-c2ccccc2-c2nnn[nH]2)cc1 [Working Example 58, Cyclohexylcarbonyloxymethyl 2-ethoxy-1-[[2′-(1 H-tetrazol-5-yl)biphenyl-4-yl]methyl]benzimidazole-7-carboxylate] |  | 
85 | 55 |  |  |  | CCOc1nc2cccc(C(=O)OCOC(=O)C(C)C)c2n1Cc1ccc(-c2ccccc2-c2nnn[nH]2)cc1 [Example 53] | ≥ 70 | 
89 | 54 |  |  |  | CCOc1nc2cccc(C(=O)OCOC(=O)C3CCCC3)c2n1Cc1ccc(-c2ccccc2-c2nnn[nH]2)cc1 [Example 61] | ≥ 70 | 
50 | 6 |  |  |  | CCCSc1nc2cccc(C(=O)O)c2n1Cc1ccc(-c2ccccc2-c2nnn[nH]2)cc1 [Example 38] | ≥ 70 | 
92 | 63 |  |  |  | CCOc1nc2cccc(C(=O)OCOC(C)=O)c2n1Cc1ccc(-c2ccccc2-c2nnn[nH]2)cc1 [Example 50] | ≥ 70 | 
79 | 40 |  |  |  | CCCOc1nc2cccc(C(=O)O)c2n1Cc1ccc(-c2ccccc2-c2nnn[nH]2)cc1 [Example 31] | ≥ 70 | 
84 | 44 |  |  |  | CCOc1nc2cccc(C(=O)OCOC(=O)CC)c2n1Cc1ccc(-c2ccccc2-c2nnn[nH]2)cc1 [Example 51] | ≥ 70 | 

inhibition at 1 µM (A II receptor) [%] | inhibition at 0.1 µM (A II receptor) [%] | melting point | Radioreceptor Assay 1 × 10^−6M (A II receptor) | Radioreceptor Assay 1 × 10^−7M (A II receptor) | SMILES | inhibition in vivo at 3 mg/kg [1] [%] | Pressor Response to A II (p.o.) 3 mg/kg [1]
82 | 51 |  |  |  | CSc1nc2cccc(C(=O)O)c2n1Cc1ccc(-c2ccccc2-c2nnn[nH]2)cc1 [Example 36] | ≥ 70 | 
 |  |  | 96 | 84 | CCNc1nc2cccc(C(=O)O)c2n1Cc1ccc(-c2ccccc2-c2nnn[nH]2)cc1 [Example 47] |  | +++ (+++ ≧ 70%)
81 | 42 |  |  |  | CCOC(=O)OC(C)OC(=O)c1cccc2nc(OCC)n(Cc3ccc(-c4ccccc4-c4nnn[nH]4)cc3)c12 (stereo not shown) [Example 54] | ≥ 70 | 
91 | 61 |  |  |  | CCOc1nc2cccc(C(=O)O)c2n1Cc1ccc(-c2ccccc2-c2nnn[nH]2)cc1 [Example 29] | ≥ 70 | 
 |  |  | 94 | 74 | CCOc1nc2cccc(C(=O)OCOC(=O)C(C)(C)C)c2n1Cc1ccc(-c2ccccc2-c2nnn[nH]2)cc1 [Example 43] |  | +++ (+++ ≧ 70%)
48 | 16 |  |  |  | CCCOc1nc2cccc(C(=O)OCC)c2n1Cc1ccc(-c2ccccc2-c2nnn[nH]2)cc1 [Example 30] | ≥ 70 | 
91 | 66 |  |  |  | CCOc1nc2cccc(C(=O)OCc3oc(=O)oc3C)c2n1Cc1ccc(-c2ccccc2-c2nnn[nH]2)cc1 [Example 49] | ≥ 70 | 
84 | 48 |  |  |  | CCCC(=O)OCOC(=O)c1cccc2nc(OCC)n(Cc3ccc(-c4ccccc4-c4nnn[nH]4)cc3)c12 [Example 52] | ≥ 70 | 
84 | 55 |  |  |  | CCOc1nc2cccc(C(=O)OCOC(=O)C3CCCCC3)c2n1Cc1ccc(-c2ccccc2-c2nnn[nH]2)cc1 [Example 58] | ≥ 70 | 
 |  |  | 81 | 44 | CCOc1nc2cccc(C(=O)OCOC(=O)/C=C/c3ccccc3)c2n1Cc1ccc(-c2ccccc2-c2nnn[nH]2)cc1 [Example 60] |  | +++ (+++ ≧ 70%)
54 | 17 |  |  |  | CCOC(=O)c1cccc2nc(SCC)n(Cc3ccc(-c4ccccc4-c4nnn[nH]4)cc3)c12 [Example 34] | ≥ 70 | 
 |  |  | 61 | 19 | CCNc1nc2cccc(C(=O)OC(C)OC(=O)OC3CCCCC3)c2n1Cc1ccc(-c2ccccc2-c2nnn[nH]2)cc1 (stereo not shown) [Example 63] |  | +++ (+++ ≧ 70%)
92 | 67 |  |  |  | CCCNc1nc2cccc(C(=O)O)c2n1Cc1ccc(-c2ccccc2-c2nnn[nH]2)cc1 [Example 48] | 50 to 70 | 
82 | 46 |  |  |  | CCOC(=O)c1cccc2nc(OCC)n(Cc3ccc(-c4ccccc4-c4nnn[nH]4)cc3)c12 [Example 28] | ≥ 70 | 
91 | 63 |  |  |  | CCOc1nc2cccc(C(=O)OC(C)OC(C)=O)c2n1Cc1ccc(-c2ccccc2-c2nnn[nH]2)cc1 (stereo not shown) [Example 55] | ≥ 70 | 
26 | 2 |  |  |  | CCOC(=O)c1cccc2nc(SC)n(Cc3ccc(-c4ccccc4-c4nnn[nH]4)cc3)c12 [Example 33] | 30 to 50 | 

SMILES | inhibition at 1 µM (A II receptor) [%] | inhibition at 0.1 µM (A II receptor) [%] | melting point | Radioreceptor Assay 1 × 10^−6M (A II receptor) | Radioreceptor Assay 1 × 10^−7M (A II receptor) | inhibition in vivo at 3 mg/kg [1] [%] | Pressor Response to A II (p.o.) 3 mg/kg [1]
CCOc1nc2cccc(C(=O)OCOC(C)=O)c2n1Cc1ccc(-c2ccccc2-c2nnn[nH]2)cc1 [Working Example 50, Acetoxymethyl 2-ethoxy-1-[[2′-(1 H-tetrazol-5-yl)biphenyl-4-yl]methyl]benzimidazole-7-carboxylate] |  |  | 152 to 154 °C (dec.) |  |  |  | 
CCOc1nc2cccc(C(=O)OC(C)OC(=O)OC3CCCCC3)c2n1Cc1ccc(-c2ccccc2-c2nnn[nH]2)cc1 (stereo not shown) [Example 44] |  |  |  | 77 | 32 |  | +++ (+++ ≧ 70%)
